Source: US20240018157A1, “CYCLIC COMPOUNDS AND METHODS OF USING SAME” (Schrödinger, Inc., priority 2019, published 2024)
Counter-ions that a name gives are not always drawn.

Columns and labels:
[1] = target: full-length MALT1 protein His-MALT1(1-824) (Homo sapiens (Human), UniProt Q9UDY8); assay: MALT1 protease assay, Assay 2 (1 nM MALT1, Ac-LRSR-AMC substrate); format: biochemical; details: 1 nM MALT1, 50 μM Ac-LRSR-AMC, 2 h pre-incubation, 8 hr incubation at RT
Description: MALT1 protease activity was assessed in an in vitro assay using a tetrapeptide as substrate and full-length MALT1 protein His-MALT1(1-824) purified from baculovirus-infected insect cells.
The final assay buffer includes 1 nM (Assay 2) or 2 nM (Assay 1) of MALT1 full-length protein, 50 μM Ac-LRSR-AMC substrate, 50 mM Tris pH 7.5, 600 mM Sodium Citrate, 1 mM DTT, 1 mM EDTA, and 0.05% BSA in 384-well plate format using black microtiter square well plates (Optiplate 384-F, Perkin Elmer).
Test compounds were dissolved in 100% DMSO at stock of 10 mM, with final DMSO concentration 0.1%. Test compounds were pre-incubated with MALT1 protein for 2 h at room temperature. Substrate was added after the pre-incubation and fluorescence signal was measured using Envision at excitation 355 nm and emission 460 nm after 8 hr incubation at RT.
The fluorescence units were transformed to percentage of remaining activity by using the high control (HC, median of fluorescence signal from wells containing MALT1 protein, substrate, and DMSO) and low control (LC, median of fluorescence signal from wells with substrate only) with the formula below: […]
IC50 and Hill coefficient were obtained using Graph Pad Prism (Graph Pad software, Inc, USA) with non-linear regression analysis.

[2] = tested on: IL10 secretion, OCI-LY10 cells; assay: Human IL10 secretion assay, Assay 1 (HTRF); format: cell-based; details: 24 h incubation, read-out: IL-10 Secretion IC50 [nM] Assay 1
Description: (§1) IL10 is one of the cytokines that are regulated via activation of NF-kB signaling. For example, in ABC-DLBCL cell lines, the activated NF-kB signaling leads to increased IL10 secretion. Inhibition of NF-kB signaling has been shown leading to decreased IL10 secretion.
Assay 1: OCI-LY10 cells were seeded in IMEM supplemented with 20% fetal bovine serum at 3×10^5 cells per well in 96-well round bottom plates (Corning 3799, Corning), treated with 100 nL of 3-fold serial compound dilutions, starting at 10 mM. The final vehicle concentration was 0.1% DMSO in all wells. After 24 h incubation, the cells were transferred to 96-PCR plates (Axygen: PCR-96-FLT-C) and centrifuged, then 16 μL of cell culture media was transferred to HTRF plates and IL10 levels were measured using human IL-10 Assay Kits (Cisbio) using HTRF format. The signals were transformed to percentage of remaining activity by using the high control (HC, median of signal from wells containing cells treated with DMSO) and low control (LC, median of signal from wells with no cells). IC50 values (nM) were determined using 4-parametric curve-fitting and Hill coefficient were obtained using Graph Pad Prism (Graph Pad software, Inc, USA) with non-linear regression analysis.

[3] = tested on: IL10 secretion, OCI-LY10 cells; assay: Human IL10 secretion assay, Assay 2 (Meso Scale Discovery); format: cell-based; details: 24 h incubation, MSD, read-out: IL-10 Secretion IC50 [nM] Assay 2
Description: as §1
Assay 2: OCI-LY10 cells were seeded in IMEM supplemented with 20% fetal bovine serum at 4.8×10^5 cells per 160 μL per well in 96-well V-bottom cell culture plates (coming, 3894), treated with 120 nL of 3-fold serial compound dilutions, starting at 4 mM. The final vehicle concentration was 0.075% DMSO in all wells. After a 24 h incubation, human IL-10 pre-coated plates (Meso Scale Discovery) were washed 3 times with PBST, and 50 μL culture medium was aspirated into the MSD plate and incubated at 4° C. overnight. The supernatant was then discarded and the wells were washed 3 times with PBST. SULFO-TAG Anti-human IL-10 Antibody (50×) was diluted 50 fold according to the Meso Scale Protocol, then 25 μL of SULFO-TAG Anti-human IL-10 Antibody (1×) was added. After 2 h of incubation at RT, the supernatant was discarded and the well was washed 3 times with PBST. 2× read buffer was added and the signal was read on an MSD Sector S600. The effect of a particular compound on IL10 secretion is shown relative to the effect of DMSO; set as 100%. IC50 values (nM) were determined using 4-parametric curve-fitting.

Chain of full-length MALT1 protein His-MALT1(1-824) (Q9UDY8 whole entry): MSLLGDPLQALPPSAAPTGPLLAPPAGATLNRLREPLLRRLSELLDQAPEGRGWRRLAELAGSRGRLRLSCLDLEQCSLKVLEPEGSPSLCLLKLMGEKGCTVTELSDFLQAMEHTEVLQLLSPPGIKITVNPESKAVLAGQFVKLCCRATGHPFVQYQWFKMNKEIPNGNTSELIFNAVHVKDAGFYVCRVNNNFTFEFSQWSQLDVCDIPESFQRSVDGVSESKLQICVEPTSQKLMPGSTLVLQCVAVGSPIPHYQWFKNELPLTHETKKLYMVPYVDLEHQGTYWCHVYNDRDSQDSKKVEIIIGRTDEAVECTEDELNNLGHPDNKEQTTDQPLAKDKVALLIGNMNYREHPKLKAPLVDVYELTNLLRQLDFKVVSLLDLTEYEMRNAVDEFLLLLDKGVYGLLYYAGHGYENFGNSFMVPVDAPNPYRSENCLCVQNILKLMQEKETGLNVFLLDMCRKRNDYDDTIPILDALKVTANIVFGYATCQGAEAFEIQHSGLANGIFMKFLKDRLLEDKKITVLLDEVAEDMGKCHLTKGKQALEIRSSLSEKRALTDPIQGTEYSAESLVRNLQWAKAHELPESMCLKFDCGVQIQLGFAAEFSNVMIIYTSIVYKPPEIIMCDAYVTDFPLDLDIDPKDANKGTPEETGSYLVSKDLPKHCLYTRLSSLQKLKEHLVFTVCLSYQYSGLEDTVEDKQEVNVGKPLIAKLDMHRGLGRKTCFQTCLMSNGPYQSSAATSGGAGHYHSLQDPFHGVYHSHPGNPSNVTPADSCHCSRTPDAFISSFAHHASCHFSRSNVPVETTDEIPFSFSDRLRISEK

Row | IC50 [1] [nM] | IC50 [2] [nM] | IC50 [3] [nM] | Compound
1 | – | 10 to 100 | 10 to 100 | C[C@@]1(C(F)(F)F)CN(C(=O)Nc2cnc(-n3nccn3)c(C(F)F)c2)c2cnc3cc(Cl)nn3c21 [compound 35, (R)-2-chloro-N-(5-(difluoromethyl)-6-(2H-1,2,3-triazol-2-yl)pyridin-3-yl)-8-methyl-8-(trifluoromethyl)-7,8-dihydro-6H-pyrazolo[1,5-a]pyrrolo[2,3-e]pyrimidine-6-carboxamide]
2 | – | 10 to 100 | 10 to 100 | C[C@@]1(C(F)(F)F)CN(C(=O)Nc2cnc(-n3nccn3)c(C(F)(F)F)c2)c2cnc3cc(Cl)nn3c21 [compound 40, (R)-N-(6-(2H-1,2,3-triazol-2-yl)-5-(trifluoromethyl)pyridin-3-yl)-2-chloro-8-methyl-8-(trifluoromethyl)-7,8-dihydro-6H-pyrazolo[1,5-a]pyrrolo[2,3-e]pyrimidine-6-carboxamide]
3 | 10 to 100 | 100 to 1000 | – | C[C@@]1(C(F)(F)F)CN(C(=O)Nc2cc(C#N)nc(C(F)(F)F)c2)c2cnc3cc(Cl)nn3c21 [compound 61, (R)-2-chloro-N-(2-cyano-6-(trifluoromethyl)pyridin-4-yl)-8-methyl-8-(trifluoromethyl)-7,8-dihydro-6H-pyrazolo[1,5-a]pyrrolo[2,3-e]pyrimidine-6-carboxamide]
4 | 10 to 100 | 10 to 100 | – | C[C@H](O)COc1ncc(NC(=O)N2C[C@@](C)(C(F)(F)F)c3c2cnc2cc(Cl)nn32)cc1Cl [compound 73, (R)-2-chloro-N-(5-chloro-6-((S)-2-hydroxypropoxy)pyridin-3-yl)-8-methyl-8-(trifluoromethyl)-7,8-dihydro-6H-pyrazolo[1,5-a]pyrrolo[2,3-e]pyrimidine-6-carboxamide]
5 | 10 to 100 | 100 to 1000 | – | COc1c(C)cc(NC(=O)N2C[C@@](C)(C(F)(F)F)c3c2cnc2cc(Cl)nn32)nc1O[C@H]1CCNC1 [compound 82, (R)-2-chloro-N-(5-methoxy-4-methyl-6-(((S)-pyrrolidin-3-yl)oxy)pyridin-2-yl)-8-methyl-8-(trifluoromethyl)-7,8-dihydro-6H-pyrazolo[1,5-a]pyrrolo[2,3-e]pyrimidine-6-carboxamide formate]
6 | 10 to 100 | 100 to 1000 | – | C[C@H]1COC(=O)N1c1cc(NC(=O)N2C[C@@](C)(C(F)(F)F)c3c2cnc2cc(Cl)nn32)cc(C(F)(F)F)n1 [compound 84, (R)-2-chloro-8-methyl-N-(2-((S)-4-methyl-2-oxooxazolidin-3-yl)-6-(trifluoromethyl)pyridine-4-yl)-8-(trifluoromethyl)-7,8-dihydro-6H-pyrazolo[1,5-a]pyrrolo[2,3-e]pyrimidine-6-carboxamide]
7 | – | 10 to 100 | 10 to 100 | CN(C)C(=O)c1ncc(NC(=O)N2C[C@@](C)(C(F)(F)F)c3c2cnc2cc(Cl)nn32)cc1C(F)F [compound 122, (R)-2-chloro-N-(5-(difluoromethyl)-6-(dimethylcarbamoyl)pyridin-3-yl)-8-methyl-8-(trifluoromethyl)-7,8-dihydro-6H-pyrazolo[1,5-a]pyrrolo[2,3-e]pyrimidine-6-carboxamide]
8 | – | 10 to 100 | 10 to 100 | Cc1cc(NC(=O)N2C[C@@](C)(C(F)(F)F)c3c2cnc2cc(F)nn32)cnc1-n1nccn1 [compound 125, (R)-2-fluoro-8-methyl-N-(5-methyl-6-(2H-1,2,3-triazol-2-yl)pyridin-3-yl)-8-(trifluoromethyl)-7,8-dihydro-6H-pyrazolo[1,5-a]pyrrolo[2,3-e]pyrimidine-6-carboxamide]
9 | – | 10 to 100 | 10 to 100 | CN(C(=O)c1ncc(NC(=O)N2C[C@@](C)(C(F)(F)F)c3c2cnc2cc(Cl)nn32)cc1C(F)F)C1CC1 [compound 151, (R)-2-chloro-N-(6-(cyclopropyl(methyl)carbamoyl)-5-(difluoromethyl)pyridin-3-yl)-8-methyl-8-(trifluoromethyl)-7,8-dihydro-6H-pyrazolo[1,5-a]pyrrolo[2,3-e]pyrimidine-6-carboxamide]

The next lines start with the compound.

Row | Compound | IC50 [1] [nM] | IC50 [2] [nM] | IC50 [3] [nM]
10 | CC1(C(F)(F)F)CN(C(=O)Nc2cnc(-n3nccn3)c(Cl)c2)c2cnc3cc(C(F)F)nn3c21 (stereo not shown) [Compound 62] | 10 to 100 | 10 to 100 | –
11 | C[C@@]1(C(F)(F)F)CN(C(=O)Nc2cnc(-n3nccn3)c(Cl)c2)c2cnc3cc(F)nn3c21 [compound 39, (R)-N-(5-chloro-6-(2H-1,2,3-triazol-2-yl)pyridin-3-yl)-2-fluoro-8-methyl-8-(trifluoromethyl)-7,8-dihydro-6H-pyrazolo[1,5-a]pyrrolo[2,3-e]pyrimidine-6-carboxamide] | – | 10 to 100 | 10 to 100
12 | C[C@@]1(C(F)(F)F)CN(C(=O)Nc2cnc(OC(F)F)c(Cl)c2)c2cnc3cc(Cl)nn3c21 [compound 49, (R)-2-chloro-N-(5-chloro-6-(difluoromethoxy)pyridin-3-yl)-8-methyl-8-(trifluoromethyl)-7,8-dihydro-6H-pyrazolo[1,5-a]pyrrolo[2,3-e]pyrimidine-6-carboxamide] | – | 10 to 100 | 10 to 100
13 | C[C@@]1(C(F)(F)F)CN(C(=O)Nc2cnnc(C(F)(F)F)c2)c2cnc3cc(Cl)nn3c21 [compound 59, (R)-11-chloro-3-methyl-3-(trifluoromethyl)-N-[6-(trifluoromethyl)pyridazin-4-yl]-1,5,8,12-tetrazatricyclo[7.3.0.02,6]dodeca-2(6),7,9,11-tetraene-5-carboxamide] | 10 to 100 | 10 to 100 | –
14 | C[C@@]1(C(F)(F)F)CN(C(=O)Nc2cnn(C(F)F)c2)c2cnc3cc(Cl)nn3c21 [compound 64, (R)-2-chloro-N-(1-(difluoromethyl)-1H-pyrazol-4-yl)-8-methyl-8-(trifluoromethyl)-7,8-dihydro-6H-pyrazolo[1,5-a]pyrrolo[2,3-e]pyrimidine-6-carboxamide] | 10 to 100 | 10 to 100 | –
15 | C[C@@]1(C(F)(F)F)CN(C(=O)Nc2cnc(C(O)C3CC3)c(Cl)c2)c2cnc3cc(Cl)nn3c21 (stereo partly drawn) [compound 72, (8R)-2-chloro-N-(5-chloro-6-(cyclopropyl(hydroxy)methyl)pyridin-3-yl)-8-methyl-8-(trifluoromethyl)-7,8-dihydro-6H-pyrazolo[1,5-a]pyrrolo[2,3-e]pyrimidine-6-carboxamide] | 10 to 100 | 100 to 1000 | –
16 | C[C@@]1(C(F)(F)F)CN(C(=O)Nc2cnc(-n3nccn3)c(C#N)c2)c2cnc3cc(F)nn3c21 [compound 91, (R)-N-(5-cyano-6-(2H-1,2,3-triazol-2-yl)pyridin-3-yl)-2-fluoro-8-methyl-8-(trifluoromethyl)-7,8-dihydro-6H-pyrazolo[1,5-a]pyrrolo[2,3-e]pyrimidine-6-carboxamide] | – | – | 10 to 100
17 | COc1cnn(-c2ncc(NC(=O)N3C[C@@](C)(C(F)(F)F)c4c3cnc3cc(Cl)nn43)cc2Cl)n1 [compound 92, (R)-2-chloro-N-(5-chloro-6(4-methoxy-2H-1,2,3-triazol-2-yl)pyridin-3-yl)-8-methyl-8-(trifluoromethyl)-7,8-dihydro-6H-pyrazolo[1,5-a]pyrrolo[2,3-e]pyrimidine-6-carboxamide] | – | – | 10 to 100
18 | CCN(C)C(=O)c1ncc(NC(=O)N2C[C@@](C)(C(F)(F)F)c3c2cnc2cc(Cl)nn32)cc1C(F)F [compound 149, (R)-2-chloro-N-(5-(difluoromethyl)-6-(ethyl(methyl)carbamoyl)pyridin-3-yl)-8-methyl-8-(trifluoromethyl)-7,8-dihydro-6H-pyrazolo[1,5-a]pyrrolo[2,3-e]pyrimidine-6-carboxamide] | – | 10 to 100 | 10 to 100
